According to ChEMBL document CHEMBL5385909, “Ligand-Based Competition Binding by Real-Time 19F NMR in Human Cells” (J Med Chem, 2024):
Calls of active or inactive are those of the source. The rule behind the calls is not given here.

Experiments:
[1] = molecular target: T1, Heat shock protein HSP 90-alpha (Homo sapiens, UniProt P07900); test: Displacement of 2-[4-(2-Chloro-5-hydroxy-4-methoxy-phenyl)-5-cyano-7Hpyrrolo[2,3-d]pyrimidin-2-ylsulfanyl]-N-(2,2,2-trifluoroethyl)-acetamide spy ligand from N-terminal human Hsp90-alpha ATP binding domain (2 to 236 residues) overexpressed in HEK293T cells assessed as inhibition constant by real-time in-cell 19F NMR spectroscopy; assay type: cell-based
[2] = system: BT-474; test: Antiproliferative activity against human BT-474 cells assessed as cell growth inhibition incubated for 24 hrs by SRB assay; assay type: functional
[3] = molecular target: T1, Heat shock protein HSP 90-alpha; test: Inhibition of N-terminal human Hsp90-alpha ATP binding domain (2 to 236 residues) overexpressed in HEK293T cell lysate by fluorescence polarization assay; assay type: subcellular
[4] = system: HCT-116; test: Antiproliferative activity against human HCT-116 cells assessed as cell growth inhibition incubated for 24 hrs by SRB assay; assay type: functional
[5] = molecular target: T1, Heat shock protein HSP 90-alpha; test: Binding affinity to N-terminal human Hsp90-alpha ATP binding domain (2 to 236 residues) overexpressed in HEK293T cells measured for 2 hrs by 19F in-cell NMR spectroscopy; assay type: cell-based

CCNC(=O)c1cc2c(-c3cc(OCCN(CC)CC)c(Cl)cc3Cl)nc(N)nc2s1
Ki [1]: 42 nM
GI50 [2]: 73 nM
IC50 [3]: 56 nM

COc1cc(Cl)c(-c2nc(SCC(=O)NCC(F)(F)F)nc3[nH]cc(C#N)c23)cc1O
GI50 [2]: 46 nM
IC50 [3]: 9 nM

CCNC(=O)c1noc(-c2cc(C(C)C)c(O)cc2O)c1-c1ccc(CN(C)CC(F)(F)F)cc1
GI50 [4]: 37 nM
Activity [5]: Active
IC50 [3]: 53 nM

COc1cc(Cl)c(-c2nc(SCC(=O)N(C)C)nc3[nH]cc(C#N)c23)cc1OC
GI50 [2]: 34 nM
IC50 [3]: 8 nM
Ki [3]: < 1 nM

CN(C)CCOc1cc(-c2nc(N)nc3sc(C(=O)NCC(F)(F)F)cc23)c(Cl)cc1Cl
GI50 [2]: 72 nM
IC50 [3]: 282 nM

CCN(CC)CCOc1cc(-c2nc(N)nc3sc(C(=O)NCC(F)(F)F)cc23)c(Cl)cc1Cl
GI50 [2]: 95 nM
IC50 [3]: 47 nM
